According to PMC12284850, “In Silico Design of Antimicrobial Peptides against Carbapenem-Resistant Infections with Enhanced Activity by Nanoformulation” (ACS Applied Bio Materials, 2025):
≈ marks a conversion by molar mass, not a printed value. Read-outs that look alike come from different tables or passages of the source. Where a SMILES comes first, the peptide text is derived from it. Bridges are numbered along the chain shown (N, C = ends). [ ]: non-standard residue; d: D form. The star is where a group is joined. X1 = CC[C@H](C)CCCCC(=O)*; Dab = NCC[C@H](N)C(=O)O

How the values were obtained:
[1] = tested on: HK-2 cells; test: Cytotoxicity assay (MTT); type: cell-based
Experimental: (§1) We tested the cytotoxicity of several antibiotic compounds, including peptides and nanoparticles, on the human embryonic kidney cell lines HEK-293, HK-2, and […]. The cells were stored in DMEM medium and incubated at 37 °C with 5% CO2 in a humidifying environment. Using the MTT (methylthiazolyldiphenyl-tetrazolium bromide) test, cell viability was evaluated. Following a 5 × 10^3 cell/mL seeding in 96-well plates, the cells were exposed to 100 μL of samples at varying concentrations (12.5–200 μM) during 72 h at 37 °C. Later, each well is loaded with MTT solution (5 mg/mL in PBS) at a volume of 10 μL. The plates were left in the dark for 4 h. After forming formazan crystals due to the action of mitochondrial reductases in living cells, the crystals were dissolved using a solubilizing solution (pH 4.7, 40% dimethylformamide, 2% glacial acetic acid, and 16% sodium dodecyl sulfate) were shaken at 150 rpm and incubated for an hour at 37 °C. Using graphical plot analysis, the IC50 value–the concentration that results in 50% cell death–was obtained by measuring the absorbance of the dissolved formazan at 570 nm. The average of three independent tests, each carried out in triplicate, was used to display the results.

[2] = tested on: human red blood cells (RBCs); test: Hemolysis assay; type: cell-based; details: at 256 μg/mL, 2% hematocrit, 1 h, 37 °C, absorbance 540 nm, triplicate
Experimental: 5 . Hemolysis profiles of colistin, free T2–02, and T2–02-loaded liposomes. (A) Colistin, (B) free T2–02 peptide, and (C) T2–02-loaded liposomes (T2–02 Lipo) were incubated with human red blood cells (RBCs) at various concentrations (0–256 μg/mL) for 1 hour at 37 °C.
The hemolytic potential of colistin, T2–02, and T2–02 Lipo were assessed using a modified erythrocyte lysis assay. Briefly, fresh erythrocytes were washed twice with phosphate-buffered saline (PBS) and resuspended in 5% glucose solution to prepare a 2% hematocrit suspension. Aliquots (100 μL) of each test compound at varying concentrations were incubated with the erythrocyte suspension at 37 °C with gentle agitation (120 rpm) for 1 h. After incubation, samples were centrifuged at 700 × g for 10 min, and the supernatant was transferred to a 96-well microplate. The release of hemoglobin was quantified by measuring the absorbance at 540 nm. The percentage of hemolysis was calculated as follows: Hemolysis (%) = (OD of test sample – OD of negative control)/(OD of positive control-OD of negative control) × 100%. Each experiment was performed in triplicate, and data were expressed as mean ± standard deviation (SD).

[3] = tested on: A. baumannii ATCC19606; type: cell-based; details: 37 °C, 18 h
Excerpt: The antimicrobial mechanism of colistin against bacteria has been attributed to the interaction between positively charged colistin and negatively charged outer membrane. Colistin could be displaced by divalent ions, such as calcium ions (Ca^2+) and magnesium (Mg^2+) in a competitively way. Moreover, elevated levels of divalent cations can enhance membrane rigidity, thereby reducing drug penetration and overall efficacy. To investigate the antimicrobial mechanism of T2–02, the competitive assays using divalent calcium ion were conducted. The elevated MICs of colistin were observed by adding Ca^2+ (2 to 32 μg/mL, Table S4).
As previously reported, the MIC values of T2–02 in conjunction with different chemical agents was estimated using the broth microdilution technique. Different concentrations of T2–02 were combined with Ca2+ separately, and the effect of chemical agents on T2–02 were tracked by observing variations in their MIC values. Each solution was added to a 96-well plate at the proper concentration in 100 μL volume. Next, 100 μL of the modified bacterial solution was added to each well. The absorbance was measured after incubation at 37 °C for 0 and 18 h.

[4] = tested on: E. coil ATCC25922; type: cell-based, E. coli
Experimental: (§2) The broth microdilution procedure involves preparing CAMHB broth, a bacterial suspension adjusted to McFarland 0.5 (1.5 × 10^8 CFU/mL) and diluted 200×, and a drug solution at 2× the final target concentration. To achieve a 400× final bacterial dilution, add 100 μL of the drug at different doses to a 96-well plate, then 100 μL of the diluted bacterial culture. Measure the initial absorbance (0 h), incubate at 37 °C for 16–18 h, and measure the final absorbance. With no change in absorbance, the MIC signifies the absence of bacterial growth.

[5] = tested on: E. faecalis ATCC 29212; type: cell-based
Experimental: as §2

[6] = tested on: S. aureus ATCC29213; type: cell-based
Experimental: as §2

[7] = tested on: K. pneumoniae ATCC BAA-1705; type: cell-based
Experimental: as §2

[8] = tested on: S. aureus ATCC33592; type: cell-based
Experimental: as §2

[9] = tested on: A. baumannii ATCC19606; type: cell-based
Experimental: as §2

[10] = tested on: P. aeruginosa ATCC27853; type: cell-based
Experimental: as §2

[11] = tested on: S. aureus ATCC700698; type: cell-based
Experimental: as §2

[12] = tested on: K. pneumoniae ATCCC700603; type: cell-based
Experimental: as §2

[13] = tested on: S. aureus ATCC25923; type: cell-based
Experimental: as §2

[14] = tested on: A. baumannii ATCC BAA-747; type: cell-based
Experimental: as §2

[15] = tested on: HEK293; type: cell-based, human; details: 72 h
Experimental: as §1

MIC [4] [µg/mL] | MIC [5] [µg/mL] | MIC [6] [µg/mL] | MIC [7] [µg/mL] | MIC [8] [µg/mL] | MIC [9] [µg/mL] | MIC [10] [µg/mL] | MIC [11] [µg/mL] | MIC [12] [µg/mL] | MIC [13] [µg/mL] | MIC [14] [µg/mL] | Compound | Cytotoxicity HK-2 related to PMB ([1]; ratio of HK-2 IC50 to that of polymyxin B) | Hemolysis [2] [%] | Antibacterial activity (MIC), 20 mM CaCl2 ([3]; in the presence of 20 mM CaCl2, broth microdilution) [µg/mL] | Antibacterial activity (MIC), Control ([3]; without CaCl2, broth microdilution) [µg/mL] | IC50 HEK293 [15] [µg/mL] | Cytotoxicity HK-2 related to PMB [1]
 |  |  |  |  |  |  |  |  |  |  | CC[C@H](C)CCCCC(=O)N[C@@H](CCN)C(=O)N[C@H](C(=O)N[C@@H](CCN)C(=O)N[C@H]1CCNC(=O)[C@H]([C@@H](C)O)NC(=O)[C@H](CCN)NC(=O)[C@H](CCN)NC(=O)[C@H](CC(C)C)NC(=O)[C@@H](CC(C)C)NC(=O)[C@H](CCN)NC1=O)[C@@H](C)O [Colistin] (X1-[Dab]T[Dab][Dab][Dab][dL]L[Dab][Dab]T; lactam 4-C (inferred); N-terminus assumed) | 2.6 | ~45 | 32 | 2 |  | 
>1024 | 1024 (≈ 441 µM) | >512 | >1024 | >512 | 8 (≈ 3.44 µM) | 8 (≈ 3.44 µM) | >512 | >512 | 1024 (≈ 441 µM) | 8 (≈ 3.44 µM) | CC[C@H](C)[C@H](NC(=O)[C@H](CCC(=O)O)NC(=O)[C@H](CC(N)=O)NC(=O)[C@H](CC(C)C)NC(=O)[C@H](C)NC(=O)[C@H](C)NC(=O)[C@H](CCCCN)NC(=O)CNC(=O)[C@H](C)NC(=O)[C@H](CC(N)=O)NC(=O)[C@H](CCCCN)NC(=O)[C@H](CC(C)C)NC(=O)[C@@H](NC(=O)[C@H](CC(=O)O)NC(=O)[C@H](CCCCN)NC(=O)[C@H](Cc1c[nH]c2ccccc12)NC(=O)[C@H](CC(C)C)NC(=O)[C@H](C)N)[C@@H](C)CC)C(=O)N[C@@H](CC(N)=O)C(=O)N[C@@H](CCC(N)=O)C(=O)N[C@@H](CC(C)C)C(=O)O [T2] (H-ALWKDILKNAGKAALNEINQL-OH) |  |  |  |  | >1024 | 
>512 | >512 | 512 (≈ 205 µM) | >512 | >512 | 64 (≈ 25.7 µM) | 64 (≈ 25.7 µM) | >512 | >512 | >512 | 64 (≈ 25.7 µM) | CC[C@H](C)[C@H](NC(=O)[C@H](CCC(=O)O)NC(=O)[C@H](CC(N)=O)NC(=O)[C@H](CC(C)C)NC(=O)[C@H](C)NC(=O)[C@H](C)NC(=O)[C@H](CCCCN)NC(=O)CNC(=O)[C@H](CCCNC(=N)N)NC(=O)[C@H](CCCNC(=N)N)NC(=O)[C@H](CCCCN)NC(=O)[C@H](CC(C)C)NC(=O)[C@H](CC(C)C)NC(=O)[C@H](CCCNC(=N)N)NC(=O)[C@H](CCCCN)NC(=O)[C@H](Cc1c[nH]c2ccccc12)NC(=O)[C@H](CC(C)C)NC(=O)[C@H](C)N)C(=O)N[C@@H](CC(N)=O)C(=O)N[C@@H](CCC(N)=O)C(=O)N[C@@H](CC(C)C)C(=O)O [T2–01] (H-ALWKRLLKRRGKAALNEINQL-OH) |  |  |  |  |  | 
64 (≈ 20.1 µM) | 128 (≈ 40.3 µM) | >512 | 128 (≈ 40.3 µM) | >512 | 32 (≈ 10.1 µM) | 32 (≈ 10.1 µM) | >512 | 128 (≈ 40.3 µM) | 128 (≈ 40.3 µM) | 32 (≈ 10.1 µM) | CC[C@H](C)[C@H](NC(=O)[C@H](CC(=O)O)NC(=O)[C@H](CCCCN)NC(=O)[C@H](Cc1c[nH]c2ccccc12)NC(=O)[C@H](CC(C)C)NC(=O)[C@H](C)N)C(=O)N[C@@H](CC(C)C)C(=O)N[C@@H](CCCCN)C(=O)N[C@@H](CC(N)=O)C(=O)N[C@@H](C)C(=O)NCC(=O)N[C@@H](CCCCN)C(=O)N[C@@H](C)C(=O)N[C@@H](C)C(=O)N[C@@H](CC(C)C)C(=O)N[C@@H](CC(N)=O)C(=O)N[C@@H](CCC(=O)O)C(=O)N[C@H](C(=O)N[C@@H](CC(N)=O)C(=O)N[C@@H](CCC(N)=O)C(=O)N[C@@H](CC(C)C)C(=O)N[C@H](C(=O)N[C@@H](CC(N)=O)C(=O)NCC(=O)N[C@@H](CCCNC(=N)N)C(=O)NCC(=O)N[C@@H](CC(C)C)C(=O)N[C@@H](CCCCN)C(=O)N[C@@H](CCCCN)C(=O)O)C(C)C)[C@@H](C)CC [seq ID-1, reference compound] (H-ALWKDILKNAGKAALNEINQLVNGRGLKK-OH) |  |  |  |  |  | 
 |  |  |  |  |  |  |  |  |  |  | SPR 206 [reference compound] |  |  |  |  |  | 11.6
